The values that follow come from paper PMC8607110, “Pyrazole Derivatives Induce Apoptosis via ROS Generation in the Triple Negative Breast Cancer Cells, MDA-MB-468” (Asian Pacific Journal of Cancer Prevention : APJCP, 2021).

The test system of experiment [1] is 5637 cells. More on the design: method as in Tessmann et al., 2017. Particulars: human bladder cancer cell line; ref Tessmann et al., 2017; cited from earlier work.
The subject of experiment [2] is MDA-MB-468 cells. Kind of experiment: MTT cell viability assay, MDA-MB-468. In kind it is cell-based, human. Conditions: mean ± SD of triplicate. The procedure:
(§1) The MDA-MB-468 cells were maintained in DMEM/Ham’s F12 supplemented with L-glutamine, with 10% fetal bovine serum and 1% penicillin/streptomycin. The AGO1522 cell line was cultured in DMEM/Low Glucose, with 10% fetal bovine serum and 1% penicillin/ streptomycin. Cells were incubated at 37°C, 5% CO2 and every 2-3 days at the confluency of 80%, the cells were harvested from the culture flask by Trypsin-EDTA.
(§2) Cell viability was measured with the MTT assay. The reduction of the tetrazolium salt, to a blue formazan crystal is facilitated by mitochondrial dehydrogenase and NADPH-dependent cellular oxidoreductase enzymes (Abel and Baird, 2018). In the assay, an aliquot of 7.5 × 10^3 cells was seeded on the 96-well plates and allowed to attach overnight. Then, 11 Pyrazole derivatives (as shown in Table 1 and Figure S1) were added to the desired well with the final concentration of 3, 6.25, 12.5, 25, 50, 100 μM. After pre-treating cells for 24 and 48h, MTT (5 mg/ml in PBS) was added to each well and the cells were incubated for another 4 h at 37°C. In order to dissolve blue-colored formazan crystals, the entire medium was aspirated after the incubation period, and DMSO was added to the wells. An ELISA plate reader (BioTek Instruments, Inc., USA) was used to quantify the formazan concentration (with the wavelengths of 570 nm). All of the experiments were carried out on three replicates to ensure the measurement repeatability and the IC50 values were also calculated using GraphPad Prism software.

In experiment [3] the test system is AGO1522 cells. Kind of experiment: MTT cell viability assay, AGO1522 normal fibroblasts. The experiment is classed as cell-based. Particulars: Homo sapiens, Fibroblast, mean ± SD of triplicate. The procedure: as §1, §2
Background: Tetrazolium dyes change colour on reduction, which living cells bring about.

Experiment [4] has as its system MDA-MB-468 cells. Nature of the experiment: Cell cycle analysis by PI staining and flow cytometry. In kind it is cell-based, human. Particulars: 14.97 μM, 24 h. As to the method:
Cell cycle analysis was conducted through taking advantage of PI staining and flow cytometry analysis. To evaluate cellular DNA levels, the cells stained with PI were subjected to ﬂow cytometric analyses. In this assay, six-well plates were loaded with 2 × 10^5 MDA-MB-468 cells / well. After incubation of the samples at 37°C for 24 h, cells were treated with 3f at concentrations of 14.7 μM followed 24 h incubation. Then, the effect of the drug became evident and cells collected by rinsing with PBS (two times), immobilizing with 70% ice-cold ethanol (for 3 h), and washing with PBS (two times). To resuspend the cells a mixture of 0.25 ml PBS containing 5 μl of 10 mg/ml RNase A and Triton X-100 (0.1%) including 10μl of PI (50 μg/ml) was used and incubation was performed at 37°C for 30 min in a dark place. The assessment of stain cells was carried out employing a FACS Calibur flow cytometer (BD Biosciences, San Jose, CA). The apoptotic rate of the cell population was measured by calculating the percentage of cells with sub-G1 DNA content.

The subject of experiment [5] is caspase-3 in MDA-MB-468 cells. Nature of the experiment: Caspase-3 activity, DEVD-AFC fluorometric assay. Particulars: 14.97 μM, 24 h, MDA-MB-468, vs untreated. The experiment is classed as cell-based, human. The procedure: From a mechanistic point of view, caspase 3 as a member of the cysteine-aspartic protease family is essential for a variety of biological activities, including apoptosis in mammalian cells (Skiba et al., 2019). To confirm the drug triggers apoptosis, the level of 7-amino-4-trifluoromethyl-coumarin (AFC) from DEVD-AFC, a marker of caspase 3 activation, was measured using Caspase-3/CPP32 Fluorometric Assay Kit (BioVision Research Products, Mountain View, CA, USA). Briefly, MDA-MB-468 cells (a density of 7.5 × 10^3 per well in 96-wells plate) were treated with 14.97 μM 3f for 24 h. The following day, cells were collected, washed two times in PBS and lysed in lysis buffer (for 10 min on ice). The concentration of protein was assessed and 50 µL of supernatant containing 50-200 µg protein was added to the 50 µL of 2x reaction buffer and 5 μl of DEVD-AFC substrate (1 mM), in a 96-wells plate. The mixture was then left at 37°C for 2 hours followed by monitoring the fluorescence intensity using a fluorescent microplate reader (BioTek Synergy HT, Winooski, VT, USA).

Experiment [6] concerns MDA-MB-468 cells. Nature of the experiment: Intracellular ROS detection with DCFH-DA. The experiment is classed as cell-based, human. Particulars: 14.97 μM, 24 h, MDA-MB-468, DCFH-DA fluorimetry, vs untreated. The procedure:
The level of intracellular ROS corresponded to the MDA-MB-468 cells in response to the 3f compound was monitored by using DCFH-DA. Briefly, 7.5 × 10^3 MDA-MB-468 cells were seeded per well of 96-wells plate and allowed to attach to the bottom of the wells for an overnight followed by treatment with 3f compound at a concentration of 14.7 μM. After incubation of cells for 24 h, PBS was used for rinsing and then cells incubated in the presence of DCFH-DA for 30 min at 37°C. Next, to remove the extracellular DCFH-DA, cells were washed three times with prechilled PBS. Finally, the fluorescent of collected cells was analyzed by using a fluorescent microplate reader (BioTek Synergy HT, Winooski, VT, USA).

The test system of experiment [7] is MDA-MB-468 cells. Nature of the experiment: Annexin V-FITC/PI apoptosis detection by flow cytometry. In kind it is cell-based, human. Particulars: 14.97 µM, 24 h, MDA-MB-468, compared with untreated cells. As to the method:
Annexin V-FITC/PI Apoptosis Detection Kit was employed to detect apoptosis. To assess the number of apoptotic cells, an aliquot of MDA-MB-468 cells was adjusted to obtain 2 × 10^5 cells per well in six-well plates followed by incubation for an overnight. After incubation cells on the surface for an appropriate time, compound 3f was added to the wells to obtain the final concentration of 14.7μM in wells for 24 h. Cells were then harvested from the culture wells by aspirating media and washing with ice-cold PBS. Once the cells have detached, resuspended cells were pipetted up and down thoroughly followed by transferring to a sterilized 5 ml centrifuge tube. After 15min, 400 µl of the binding buffer was added to the cell suspension. Then annexin V-FITC and PI staining solution were added to the tubes. The cell suspension was then placed in a dark place (10 min at room temperature). A flow cytometer (BD Biosciences, San Jose, CA) was used to analyze the cells. The analysis of data was made using FlowJo software.
Background: In flow cytometry, cells or beads pass a laser one at a time.

Where [8] appears, read: Homo sapiens, MDA-MB-468, 24 h, 24 h treatment, read-out: IC50, MDA-MB-468, 24 hours.
The mark [9] stands for this setting: Homo sapiens, MDA-MB-468, 48 h, 48 h treatment, read-out: IC50, MDA-MB-468, 48 hours.
[10] abbreviates: 24 h treatment, read-out: IC50, AGO1522, 24 hours.
Setting [11] is: 48 h treatment, read-out: IC50, AGO1522, 48 hours.

Values joined by “and” are separate entries in the source; they are usually repeats but may differ in a detail not shown here. Identical values can stand only once. Like-named read-outs stand apart in the source and are kept apart here.

On to `NC(=S)N1N=C(c2ccccc2)CC1c1ccccc1` (stereo not shown) [2a, 1-thiocarbamoyl-3,5-diphenyl-4,5-dihydro-1H-Pyrazole], for which, in experiment [1], the “cell cycle progression of 5637 cells” value is reported as “inhibited cell cycle progression”.
In the case of `NC(=S)N1N=C(c2ccccc2)CC1c1ccc(Cl)cc1` (stereo not shown) [2c, 1-thiocarbamoyl-5-(4-chlorophenyl)-3-phenyl-4,5-dihydro-1H-Pyrazole], in experiment [1], the “cell cycle progression of 5637 cells” value is recorded as “inhibited cell cycle progression”.
Consider `COc1cc(C2CC(c3ccccc3)=NN2c2ccccc2)cc(OC)c1OC` (stereo not shown) [3a, 1,3-diphenyl-5-(3,4,5-trimethoxyphenyl)-4,5-dihydro-1H-Pyrazole], for which the IC50 (as a rule, the concentration that inhibits the measured activity by half) in experiment [2] (setting [8]) turned out to be 25 µM; in experiment [2] (setting [9]), 6.41 ± 1.1 µM; in experiment [3] (setting [10]), 28.8 ± 0.95 µM; in experiment [3] (setting [11]), 19.9 ± 0.83 µM.
In the case of `COc1cc(C2CC(c3ccccc3)=NN2c2ccc(C)cc2)cc(OC)c1OC` (stereo not shown) [3b, 3-phenyl-1-(p-tolyl)-5-(3,4,5-trimethoxyphenyl)-4,5-dihydro-1H-Pyrazole], the IC50 in experiment [2] (setting [8]) turned out to be 19.2 ± 0.97 µM; in experiment [2] (setting [9]), 9.29 ± 0.67 µM; in experiment [3] (setting [10]) it was 29.8 ± 1.02 µM; in experiment [3] (setting [11]), 19.8 ± 0.96 µM.
The corresponding values for `COc1cc(C2CC(c3ccccc3)=NN2c2ccc(Cl)cc2)cc(OC)c1OC` (stereo not shown) [3c, 1-(4-chlorophenyl)-3-phenyl-5-(3,4,5-trimethoxyphenyl)-4,5-dihydro-1H-Pyrazole] are 58.6 ± 0.82 µM, 19.9 ± 1.12 µM, 24.1 ± 0.65 µM and 17.7 ± 0.93 µM.
For `COc1cc(C2CC(c3ccccc3)=NN2c2ccc(F)cc2)cc(OC)c1OC` (stereo not shown) [3d, 1-(4-fluorophenyl)-3-phenyl-5-(3,4,5-trimethoxyphenyl)-4,5-dihydro-1H-Pyrazole], the 50% inhibitory concentration (IC50) in experiment [2] (setting [8]) came to 32.6 ± 1.22 µM; in experiment [2] (setting [9]), 15.2 ± 0.9 µM; in experiment [3] (setting [10]), 42.1 ± 1.27 µM; in experiment [3] (setting [11]) it was 35.6 ± 1.32 µM.
Take `COc1ccc(C2=NN(c3ccccc3)C(c3cc(OC)c(OC)c(OC)c3)C2)cc1` (stereo not shown) [3e, 3-(4-methoxyphenyl)-1-phenyl-5-(3,4,5-trimethoxyphenyl)-4,5-dihydro-1H-Pyrazole]: the IC50 in experiment [2] (setting [8]) was 21.3 ± 0.85 µM; in experiment [2] (setting [9]), 10.8 ± 0.93 µM; in experiment [3] (setting [10]) it was 42.8 ± 0.98 µM; in experiment [3] (setting [11]), 19.9 ± 0.99 µM.
On to `COc1ccc(C2=NN(c3ccc(C)cc3)C(c3cc(OC)c(OC)c(OC)c3)C2)cc1` (stereo not shown) [3f, 3-(4-methoxyphenyl)-1-(p-tolyl)-5-(3,4,5-trimethoxyphenyl)-4,5-dihydro-1H-Pyrazole], for which the IC50 in experiment [2] (48 h treatment, read-out: IC50, MDA-MB-468, 48 hours) was 6.45 ± 0.84 µM; in experiment [2] (setting [8]), 15 ± 1.09 µM; in experiment [2] (setting [9]) it was 6.4 µM; in experiment [3] (setting [10]), 28.7 ± 1.2 µM; in experiment [3] (setting [11]), 20.3 ± 0.83 µM. Besides, the G1 cell fraction in experiment [4] worked out at 50.52%. The molecule further registered a G2 cell fraction in experiment [4] of 6.28%. In addition, the “S phase cell fraction” value in experiment [4] is 35% and 35.01%. Further, the Sub-G1 cell fraction in experiment [4] and in experiment [4] (as worded in text) was 8.12% in each case. In experiment [4], this molecule had a Super-G2 cell fraction of 0.07%. Also, the cell cycle effect result in experiment [4] is on record as “induced cell cycle arrest in S phase”. For the same molecule, in experiment [5], the caspase-3 activity entry is “significantly increased”. Further, the “intracellular ROS level” value in experiment [6] was “ascending trend”. In addition, the apoptosis value in experiment [7] came to 38%.
On to `COc1ccc(C2=NN(c3ccc(Cl)cc3)C(c3cc(OC)c(OC)c(OC)c3)C2)cc1` (stereo not shown) [3g, 1-(4-chlorophenyl)-3-(4-methoxyphenyl)-5-(3,4,5-trimethoxyphenyl)-4,5-dihydro-1HPyrazole], for which the IC50 in experiment [2] (setting [8]) was found to be 25.8 ± 0.91 µM; in experiment [2] (setting [9]), 8.5 ± 0.89 µM; in experiment [3] (setting [10]), 43.3 ± 0.96 µM; in experiment [3] (setting [11]) it was 34 ± 1.92 µM.
Turning to `COc1cc(-c2cc(-c3ccccc3)nn2-c2ccccc2)cc(OC)c1OC` [4a, 1,3-diphenyl-5-(3,4,5-trimethoxyphenyl)-1H-Pyrazole], the IC50 was found to be 19.4 ± 1.14 µM in experiment [2] (setting [8]), 11 ± 0.88 µM in experiment [2] (setting [9]), 31.2 ± 1.24 µM in experiment [3] (setting [10]) and 14.5 ± 0.97 µM in experiment [3] (setting [11]).
The corresponding values for `COc1ccc(-c2cc(-c3cc(OC)c(OC)c(OC)c3)n(-c3ccc(C)cc3)n2)cc1` [4b, 3-(4-methoxyphenyl)-1-(p-tolyl)-5-(3,4,5-trimethoxyphenyl)-1H-Pyrazole] are 58.2 ± 1.35 µM, 12 ± 0.94 µM, 34.6 ± 0.89 µM and 27 ± 0.79 µM.
On the same counts, the results for `COc1ccc(-c2cc(-c3cc(OC)c(OC)c(OC)c3)n(-c3ccc(Cl)cc3)n2)cc1` [4c, 1-(4-chlorophenyl)-3-(4-methoxyphenyl)-5-(3,4,5-trimethoxyphenyl)-1H-Pyrazole] are 28.8 ± 0.98 µM, 12.4 ± 0.79 µM, 25.2 ± 0.88 µM and 20.9 ± 0.92 µM.
The corresponding values for `COc1ccc(-c2cc(-c3cc(OC)c(OC)c(OC)c3)n(-c3ccc(F)cc3)n2)cc1` [4d, 1-(4-fluorophenyl)-3-(4-methoxyphenyl)-5-(3,4,5-trimethoxyphenyl)-1H-Pyrazole] are 58.6 ± 1.32 µM, 24.5 ± 1.17 µM, 34.4 ± 1.31 µM and 27.3 ± 0.94 µM.
As for `CC(=O)O[C@H]1C(=O)[C@@]2(C)[C@H]([C@H](OC(=O)c3ccccc3)[C@]3(O)C[C@H](OC(=O)[C@H](O)[C@@H](NC(=O)c4ccccc4)c4ccccc4)C(C)=C1C3(C)C)[C@]1(OC(C)=O)CO[C@@H]1C[C@@H]2O` [Paclitaxel, reference compound], the concentration for half-maximal inhibition (IC50) in experiment [2] (setting [8]) stood at 49.9 ± 0.97 µM; in experiment [2] (setting [9]), 25.2 ± 1.27 µM; in experiment [3] (setting [10]) it was 42.9 ± 1.42 µM; in experiment [3] (setting [11]), 22.6 ± 0.91 µM.
